In patent publication US20260209249A1, “NOVEL TRICYCLIC COMPOUND AS KRAS G12D INHIBITOR, AND USE THEREOF” (SK Biopharmaceuticals Co., priority 2022, published 2026):

Legend:
[1] = molecular target: T1, GppNHp-KRAS G12D mutant protein (Homo sapiens, UniProt P01116, G12D); experiment: Differential scanning fluorimetry (DSF) binding affinity to GppNHp-KRAS G12D mutant protein; settings: DSF thermal shift, 10 μM compound, 4 μg KRAS protein, 50 mM HEPES (pH 7.5)
T1 construct: purchased Daegu Gyeongbuk Medical Innovation Foundation (DGMIF), made to order
Description: (§1) Test Example 1: Measurement of Binding Affinity to KRAS G12D Mutant Protein The binding affinities of the compounds according to one embodiment of the present application to the KRAS G12D mutant protein were evaluated using differential scanning fluorimetry (DSF). Differential scanning fluorimetry (DSF) is a method used to study the stability of a protein upon binding to a compound. The experiment can be performed using a real-time PCR (RT-PCR) instrument, and is commonly employed as a screening technique for small-molecule compounds targeting specific proteins. As the temperature increases, folded proteins begin to unfold, during which a hydrophobic dye such as SYPRO Orange binds to the exposed hydrophobic regions of the protein, resulting in a measurable increase in fluorescence intensity (maximum absorption at 470 nm and maximum emission at 570 nm). Protein-compound binding is determined by the difference in the melting temperature (Tm) of the protein in the presence of the compound compared to the Tm in the absence of the compound, expressed as ΔTm. The binding affinity to the KRAS G12D mutant protein was measured using the Protein Thermal Shift Dye kit (#4461146, Applied Biosystems). The GDP-KRAS G12D mutant protein and GppNHp-KRAS G12D mutant protein used in the experiment were recombinant proteins synthesized by the Daegu Gyeongbuk Medical Innovation Foundation (DGMIF) upon request. The analysis of binding between the compound and the KRAS G12D mutant protein was performed according to the following reaction recipe: each test sample contained 4 μg of KRAS protein, 10 μM of the compound, and 2×SYPRO Orange dye. For the GDP-KRAS G12D protein samples, the buffer provided with the Protein Thermal Shift Dye kit was used, while for the GppNHp-KRAS G12D protein samples, 50 mM HEPES (pH 7.5) buffer was used. For the protein-compound binding reaction, the compound was added to the KRAS G12D mutant protein and reacted at room temperature for 30 minutes, followed by the addition of 2×SYPRO Orange dye. The temperature was increased to 25° C.-99° C. (0.05° C./s) using QuantStudiol RT-PCR instrument (Applied Biosystems), and fluorescence was measured using a ROX reporter with filters of 580±10 nm (excitation)/623±14 nm (emission). The measurements obtained at a compound concentration of 10 μM were analyzed using the Protein Thermal Shift Software program (version v1.4, Thermo Fisher Scientific), and the ΔTm (° C.) values, which indicate the binding affinity of the compound to the KRAS G12D mutant protein, were calculated. The DSF measurement results for the compounds according to one embodiment of the present application with respect to the KRAS G12D mutant protein are shown in Table 2.

[2] = molecular target: T2, GDP-KRAS G12D mutant protein (Homo sapiens, UniProt P01116, G12D); experiment: Differential scanning fluorimetry (DSF) binding affinity to GDP-KRAS G12D mutant protein; settings: DSF thermal shift, 10 μM compound, 4 μg KRAS protein
T2 construct: purchased Daegu Gyeongbuk Medical Innovation Foundation (DGMIF), made to order
Description: as §1

| Compound | GppNHp-KRAS G12D (ΔTmD, ° C.) [1] | GDP-KRAS G12D (ΔTmD, ° C.) [2] |
| --- | --- | --- |
| C#Cc1c(F)ccc2cccc(-c3cc4nc(OC[C@@]56CCCN5C[C@H](F)C6)nc(N5C[C@H]6CC[C@@H](C5)N6)c4n4ccnc34)c12 [Example 28, 1-((1R,5S)-3,8-diazabicyclo[3.2.1]octan-3-yl)-6-(8-ethynyl-7-fluoronaphthalen-1-yl)-3-(((2R,7aS)-2-fluorotetrahydro-1H-pyrrolizin-7a(5H)-yl)methoxy)imidazo[1′,2′:1,6]pyrido[3,2-d]pyrimidine] | 0.27 °C | 3.53 °C |
| CCc1c(F)ccc2cc(O)cc(-c3cc4nc(OC[C@@]56CCCN5CC(=C(F)F)C6)nc(N5C[C@H]6CC[C@@H](C5)N6)c4n4ccnc34)c12 [Example 109, 4-(1-((1 R,5S)-3,8-diazabicyclo[3.2.1]octan-3-yl)-3-(((S)-2-(difluoromethylene)tetrahydro-1H-pyrrolizin-7a(5H)-yl)methoxy)imidazo[1′,2′:1,6]pyrido[3,2-d]pyrimidin-6-yl)-5-ethyl-6-fluoronaphthalen-2-ol] | 4.28 °C | 10.51 °C |
| C#Cc1c(F)ccc2cc(O)cc(-c3c(F)c4nc(OC[C@@]56CCCN5C[C@H](F)C6)nc(N5[C@@H]6CC[C@H]5CNC6)c4c4cn(C)nc34)c12 [Example 103, 4-(9-((1 R,5S)-3,8-diazabicyclo[3.2.1]octan-8-yl)-5-fluoro-7-(((2R,7aS)-2-fluorotetrahydro-1H-pyrrolizin-7a(5H)-yl)methoxy)-2-methyl-2H-pyrazolo[4,3-n]quinazolin-4-yl)-5-ethynyl-6-fluoronaphthalen-2-ol] | 11.59 °C | 14.80 °C |
| C#Cc1c(F)ccc2cc(O)cc(-c3cc4nc(OCC5(CN6CC[C@@H](F)C6)CCC5)nc(N5C[C@H]6CC[C@@H](C5)N6)c4n4ccnc34)c12 [Example 40, 4-(1-((1R,5S)-3,8-diazabicyclo[3.2.1]octan-3-yl)-3-((1-(((R)-3-fluoropyrrolidin-1-yl)methyl)cyclobutyl)methoxy)imidazo[1′,2′:1,6]pyrido[3,2-d]pyrimidin-6-yl)-5-ethynyl-6-fluoronaphthalen-2-ol] | 0.61 °C | 5.95 °C |
| C#Cc1c(F)ccc2cc(O)cc(-c3cc4nc(OC[C@@]56CCCN5CC(=C(F)F)C6)nc(N5[C@@H]6CC[C@H]5CNC6)c4n4ccnc34)c12 [Example 106, 4-(1-((1 R,5S)-3,8-diazabicyclo[3.2.1]octan-8-yl)-3-(((S)-2-(difluoromethylene)tetrahydro-1H-pyrrolizin-7a(5H)-yl)methoxy)imidazo[1′,2′:1,6]pyrido[3,2-d]pyrimidin-6-yl)-5-ethynyl-6-fluoronaphthalen-2-ol] | 6.65 °C | 10.21 °C |
| C#Cc1c(F)ccc2cc(O)cc(-c3cc4nc(OCC5(CN6CCC[C@H](F)C6)CC5)nc(N5C[C@H]6CC[C@@H](C5)N6)c4n4ccnc34)c12 [Example 31, 4-(1-((1R,5S)-3,8-diazabicyclo[3.2.1]octan-3-yl)-3-((1-(((S)-3-fluoropiperidin-1-yl)methyl)cyclopropyl)methoxy)imidazo[1′,2′:1,6]pyrido[3,2-d]pyrimidin-6-yl)-5-ethynyl-6-fluoronaphthalen-2-ol] | 2.22 °C | 7.82 °C |
| Nc1nc2c(-c3cc4nc(OC[C@@]56CCCN5C[C@H](F)C6)nc(N5C[C@H]6CC[C@@H](C5)N6)c4n4ccnc34)ccc(F)c2s1 [Example 25, 4-(1-((1R,5S)-3,8-diazabicyclo[3.2.1]octan-3-yl)-3-(((2R,7aS)-2-fluorotetrahydro-1H-pyrrolizin-7a(5H)-yl)methoxy)imidazo[1′,2′:1,6]pyrido[3,2-d]pyrimidin-6-yl)-7-fluorobenzo[d]thiazol-2-amine] | −0.17 °C | 0.27 °C |
